Data taken from patent US7915287B2, “Substituted heterocycles and methods of use” (Amgen Inc., priority 2006, dated 2011).

molecular target: T1, c-Met (Homo sapiens, UniProt P08581); assay: c-Met receptor assay (HTRF kinase assay with GST-cMet (P), gastrin and ATP); type: biochemical; details: illustrative activity values
T1 construct: A PCR product covering residues 1058-1365 of c-Met (c-Met kinase domain) is generated; made in house; host or cells: baculovirus-infected (insect) cells
Experimental: Phosphorylation of the purified GST-cMET is performed by incubating the protein for 3 h at RT with the following:
After incubation, the solution is concentrated in a Vivaspin 20 ml Concentrator to a volume less than 2.00 ml. The solution is applied to the same Superdex 75 16/60 column used above after re-equilibration. The GST-cMET is eluted as described above. The elution fractions corresponding to the first eluted peak on the chromatogram are run on a 12% Tris Glycine gel, as above, to identify the fractions with GST-cMET. Fractions are pooled and the OD280 is read with the column buffer used as the blank.
A Kinase reaction Buffer is prepared as follows:
When the assay is carried out, freshly add:
The HTRF buffer contains:
1. Dilute GST-cMet (P) enzyme in kinase buffer as follows:
2. Assay plate preparation:
Then incubate the plate at RT for 30 min.
3. Prepare Gastrin and ATP working solution in kinase reaction buffer as follows:
Use Biomek FX to add 20 μl ATP and Gastrin working solution to the assay plate to start reaction, incubate the plate at RT for 1 h.
KM ATP, KM gastrin for various enzymes were determined by HTRF/^33P labeling and HTRF methods.
Cloning, Expression and Purification of c-Met Kinase Domain
Alternative Purification of Human GST-cMET from Baculovirus Cells
The resin is washed with 10 column volumes (100 mL) of Lysis Buffer. […] The elution is collected as 15 mL fractions. Aliquots of the elution fractions are run on SDS PAGE (12% Tris Glycine gel, Invitrogen, #EC6005BOX). The gel is stained with 0.25% Coomassie Blue stain. Fractions with GST-cMET are concentrated with a Vivaspin 20 mL Concentrator (#VS2002; 10.00 MW cutoff) to a final volume less than 2.0 ml. […] The GST-cMET is eluted with an isocratic run of the above buffer, with the eluent collected in 1.0 mL fractions. Fractions with significant OD280 readings are run on another 12% Tris Glycine gel. The peak tubes with GST-cMET are pooled and the OD280 is read with the column buffer listed above as the blank buffer. […]

T1 sequence (P08581 1058-1365): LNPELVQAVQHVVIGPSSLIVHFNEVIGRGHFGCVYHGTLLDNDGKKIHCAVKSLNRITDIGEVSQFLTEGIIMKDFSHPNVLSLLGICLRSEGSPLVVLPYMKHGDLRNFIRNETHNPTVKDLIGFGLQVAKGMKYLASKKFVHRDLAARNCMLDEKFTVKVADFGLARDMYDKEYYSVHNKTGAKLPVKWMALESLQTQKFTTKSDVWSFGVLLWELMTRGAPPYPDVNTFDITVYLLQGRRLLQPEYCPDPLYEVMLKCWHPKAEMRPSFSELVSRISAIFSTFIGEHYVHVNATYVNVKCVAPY

Structure (SMILES) | Ki [µM]
COc1ccc2c(Oc3ccc(Nc4nccnc4C(=O)Nc4ccccc4)cc3F)ccnc2c1 [Example 36, 3-(3-fluoro-4-(7-methoxyquinolin-4-yloxy)phenylamino)-N-phenylpyrazine-2-carboxamide] | 0.0293
O=C(Nc1ccccc1)c1cccnc1Nc1ccc(Oc2ccnc(NC(=O)N3CCCC3)c2)c(F)c1 [Example 5, 2-(3-fluoro-4-(2-(pyrrolidine-1-carboxamido)pyridin-4-yloxy)phenylamino)-N-phenylnicotinamide] | 0.0006
COc1cc2c(Oc3ccc(Nc4ncccc4C(=O)NCc4ccccc4)cc3)ccnc2cc1OCCCN1CCOCC1 [Example 15, N-benzyl-2-(4-(6-methoxy-7-(3-morpholinopropoxy)quinolin-4-yloxy)phenylamino)nicotinamide] | 0.0048
COc1cc2nccc(Oc3ccc(Nc4ncccc4C(=O)Nc4ncco4)cc3)c2cc1OC [Example 29, 2-(4-(6,7-dimethoxyquinoline-4-yloxy)phenylamino)-N-(oxazol-2-yl)nicotinamide] | 0.196
COc1cc2nccc(Oc3ccc(Nc4ncccc4C(=O)NCc4ncc[nH]4)cc3)c2cc1OC [Example 28, N-((1H-imidazol-2-yl)methyl)-2-(4-(6,7-dimethoxyquinoline-4-yloxy)phenylamino)nicotinamide] | 0.576
CSc1ncc(C(=O)Nc2ccccc2)c(Nc2ccc(Oc3ccnc(NC(=O)N4CCCC4)c3)c(F)c2)n1 [Example 30, 4-(3-fluoro-4-(2-(pyrrolidine-1-carboxamido)pyridin-4-yloxy)phenylamino)-2-(methylthio)-N-phenylpyrimidin-5-carboxamide] | 0.0002
CNC(=O)c1cccnc1Nc1ccc(Oc2ccnc3cc(OC)c(OC)cc23)cc1 [Example 26, 2-(4-(6,7-dimethoxyquinoline-4-yloxy)phenylamino)-N-methylnicotinamide] | 0.498
COc1ccc2c(Oc3ccc(Nc4ncc(-c5ccsc5)cc4C(=O)Nc4ccccc4)cc3F)ccnc2c1 [Example 4, 2-(3-fluoro-4-(7-methoxyquinolin-4-yloxy)phenylamino)-N-phenyl-5-(thiophen-3-yl)nicotinamide] | 0.0047
COc1cc2nccc(Oc3ccc(Nc4ncccc4C(=O)NCc4nccs4)cc3)c2cc1OC [Example 27, 2-(4-(6,7-dimethoxyquinoline-4-yloxy)phenylamino)-N-(thiazol-2-ylmethyl)nicotinamide] | 0.18
COc1cc2nccc(Oc3ccc(Nc4ncccc4C(=O)NC(C)c4nccs4)cc3)c2cc1OC (stereo not drawn) [Example 24, 2-(4-(6,7-dimethoxyquinoline-4-yloxy)phenylamino)-N-(1-(thiazol-2-yl)ethyl)nicotinamide] | 0.136
COc1ccccc1NC(=O)c1cccnc1Nc1ccc(Oc2ccnc3cc(OCc4ccccc4)c(OC)cc23)c(F)c1 [Example 10, 2-(4-(7-(benzyloxy)-6-methoxyquinolin-4-yloxy)-3-fluorophenylamino)-N-(2-methoxyphenyl)nicotinamide] | 0.0405
Cc1cnc(Nc2ccc(Oc3ccnc(NC(=O)N4CCOCC4)c3)c(F)c2)c(C(=O)Nc2ccccc2)c1 [Example 1, N-(4-(2-fluoro-4-(5-methyl-3-(phenylcarbamoyl)pyridin-2-ylamino)phenoxy)pyridin-2-yl)morpholine-4-carboxamide] | 0.0017
